According to patent publication US20020092037A1, “Use of membrane supports in plant tissue culture processes” (priority 2000, published 2002):

Test system: P. taeda embryogenic cell lines
Assay: Growth of non-transgenic, transgenic and mixed pine cell cultures on GENETICIN selection medium with support treatments, P. taeda
Assay type: cell-based, Pinus taeda
Details: 15 mg/L in DCR selection medium
Procedure: Stably transformed pine tissue had been generated using a particle bombardment method and selected for the presence of an inserted antibiotic resistance gene, nptII, on DCR2 gelled medium (Table 5), in this example containing 15 mg/L GENETICIN®, hereinafter referred to as DCR selection medium. Additionally, the presence of an inserted gus gene, encoding a β-glucuronidase enzyme in tissue culture cells, had been detected by deep blue staining of cells from each of the transgenic lines upon exposure to a colorigenic glucuronidase enzyme substrate (commercially available from Inalco, Inc.), according to techniques well known to those skilled in the art of plant transformation, and the presence of both transgenes had been verified by use of the polymerase chain reaction (PCR) using techniques well known to those skilled in the art of molecular biology. The transgenic pine lines containing and expressing both transgenes had then been cryopreserved as described in Example 4 above. […]
Cells, or the supports bearing the cells, were transferred onto fresh selection medium at biweekly intervals, and fresh weight of cells for each plate was recorded at each biweekly transfer, for a total of eight weeks (Table 19). […]

## CN[C@@H]1[C@@H](O)[C@@H](O[C@@H]2[C@@H](O)[C@H](O[C@H]3O[C@H]([C@@H](C)O)[C@@H](O)[C@H](O)[C@H]3N)[C@@H](N)C[C@H]2N)OC[C@]1(C)O [GENETICIN®]
  selection of non-transformed versus transformed pine tissue: sufficient to kill the non-transformed tissue while allowing growth of the transformed tissue
